Measurements from patent publication US7011972B2, “Fusion polypeptide comprising two ligand binding domains” (The Scripps Research Institute, priority 2000, dated 2006).
Entries after “also recorded” stand apart in the source; their conditions may differ.

T1: hPR (aa645-914) LBD (Homo sapiens, UniProt P06401)
T1 construct: The human PR truncated LBD (aa645-914) was amplified from PAPCMVGL914VPc′-SV; expressed in transfected cells; host or cells: HeLa cells, effector plasmid in pcDNA3.1(+)Zeo
T1 sequence (P06401 645-914): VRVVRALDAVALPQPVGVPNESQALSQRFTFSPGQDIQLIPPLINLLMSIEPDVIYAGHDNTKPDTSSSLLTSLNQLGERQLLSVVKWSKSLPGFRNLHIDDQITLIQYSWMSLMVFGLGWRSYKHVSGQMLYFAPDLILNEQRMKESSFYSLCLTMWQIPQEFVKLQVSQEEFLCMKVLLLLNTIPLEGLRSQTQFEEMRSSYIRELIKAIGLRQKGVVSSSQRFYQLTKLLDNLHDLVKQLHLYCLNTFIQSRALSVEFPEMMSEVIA

B1: ER-VP64: ER LBD fused to a VP64 activation domain (protein)
chain: RNEMGASGDMRAANLWPSPLVIKHTKKNSPALSLTADQMVSALLDAEPPMIYSEYDPSRPFSEASMMGLLTNLADRELVHMINWAKRVPGFGDLNLHDQVHLLECAWLEILMIGLVWRSMEHPGKLLFAPNLLLDRNQGKCVEGMVEIFDMLLATSSRFRMMNLQGEEFVCLKSIILLNSGVYTFLSSTLKSLEEKDHIHRVLDKITDTLIHLMAKAGLTLQQQHRRLAQLLLILSHIRHMSNKRMEHLYNMKCKNVVPLYDLLLEMLDAHRLHAPASRMGVPPEEPSQTQLATTSSTSAHSLQTYYIPPEAEGFPNTI
modifications: left off: large carriers

Key:
[1] = system: E2C-TATA-luciferase reporter plasmid carrying a single E2C binding site; assay: Luciferase reporter assay, E2C-TATA-luc in HeLa cells; assay type: cell-based; conditions: 4-OHT
Experimental: A, structure of ER fusion proteins. E2C, six finger protein; L, flexible peptide linker. B, fusion proteins with a single ER-LBD bind as dimers. HeLa cells were cotransfected with a C7-ER-VP64 expression vector, and the indicated TATA luciferase reporter plasmids carrying either one or two C7 binding sites. 24 h after transfection, cells were either left untreated (−), or 100 nM 4-OHT was added (+). Luciferase activity in total cell extracts was measured 48 h after transfection. Each bar represents the mean value (+/−SD) of duplicate measurements. […] C, D, regulation of transcription through a single binding site by fusion proteins with two ER-LBDs. HeLa cells were cotransfected with the indicated expression vectors and the E2C-TATA-luciferase reporter plasmid, carrying a single E2C binding site upstream of a TATA box. 4-OHT induction and measurement of luciferase activity was carried out as described in B.
A, structure of single-chain RXR/EcR fusion proteins. B, regulation of transcription through a single binding site. HeLa cells were cotransfected with the indicated expression vectors and the E2C-TATA-luciferase reporter plasmid, carrying a single E2C binding site. 24 h after transfection, cells were either left untreated (−), or 5 μM Ponasterone A was added (+). Luciferase activity in total cell extracts was measured 48 h after transfection.
(§1) Luciferase and βP-gal reporter assays.
To overcome these problems, we produced two types of ER-based chimeric regulators, designed to be capable of regulating gene expression through a single binding site in a hormone-dependent manner. In the first strategy, a heterodimeric regulator was generated consisting of the engineered zinc finger protein E2C fused to an ER LBD, as well as an ER LBD fused to a VP64 activation domain (FIG. 2A). […] Addition of hormone led to a 3- to 5-fold stimulation of luciferase expression, indicating the formation of functional heterodimers. […]

hPR (aa645-914) LBD = target: T1, hPR (aa645-914) LBD; assay: Ligand crossreactivity on PR fusion, 10×C7-TATA-luc reporter; assay type: cell-based; conditions: PR LBD fusion proteins
Experimental: as §1
The chimeric transcriptional regulators were then tested for their ability to regulate the 10×C7-TATA-luc reporter plasmid in a hormone dependent manner. 10×C7-TATA-luc contains ten C7 binding sites [5′-GCG TGG GCG-3′] spaced by 5 nucleotides, and a TATA box, upstream of the firefly luciferase coding region. […] RU486 stimulated the activity of VP16-C7-PR 26-fold, while 4-OHT led to a 43-fold activation of VP16-C7-ER. […] The presence of a NLS in either position was not only not required, but even undesirable, since it led to an increased basal (i.e. hormone-independent) activity of the fusion constructs, presumably through increased nuclear localization. Thus, the hPR (aa645-914) and mER (aa281-599, G525R) LBDs are able to confer hormone-dependence onto the zinc finger protein C7.

[2] = system: 10×B3-TATA-luc reporter (with B3-PR-VP16 and N1-ER-VP64) in HeLa cells; assay: Dual reporter assay, luciferase; assay type: cell-based; conditions: HeLa cells expressing B3-PR-VP16 and N1-ER-VP64
Excerpt: (§2) RU486- and Tamoxifen-inducible promoter constructs. 10×C7-TATA, 10×B3-TATA, and 10×N1-TATA fragments were assembled from two pairs of complementary oligonucleotides each and cloned into Sac1-Xma1 linearized pGL3-Basic (Promega), upstream of the firefly luciferase coding region, creating the plasmids 10×C7-TATA-luc, 10×B3-TATA-luc, and 10×N1-TATA-luc. To generate the 10×N1-TATA-lacZ reporter construct, the lacZ coding region was excised from pβgal-Basic (Clontech) and used to replace the luciferase coding region of 10×N1-TATA-luc via Hind3-BamH1 digestion. Luciferase and βP-gal reporter assays. […] Concomitant regulation of multiple promoters. Zinc finger technology has made a large repertoire of DNA binding specificities available for use in protein engineering [[…]., and Barbas, C. F., III (1998) Proc. Natl. Acad. Sci. USA 95, 14628-14633; […]., and Barbas, C. F., III (1999) Proc. Natl. Acad. Sci. USA 96, 2758-2763; […]., and Barbas, C. F., III (2000) Proc. Natl. Acad. Sci. USA 97, 1495-1500]. The availability of different steroid hormone receptor-derived regulatory domains [Littlewood, T. D., Hancock, […]., Parker, M. G., and Evan, G. I. (1995) Nucl. […] The transfected cells were treated with either RU486 or 4-OHT and the luciferase and β-gal activities were monitored.

[3] = system: 10×N1-TATA-β-gal reporter (with B3-PR-VP16 and N1-ER-VP64) in HeLa cells; assay: Dual reporter assay, β-gal; assay type: cell-based; conditions: HeLa cells expressing B3-PR-VP16 and N1-ER-VP64
Excerpt: as §2

ER-VP64 (mouse) = ER-VP64 (mouse) (UniProt P19785); assay: cell-based or functional assay

Molecule | hormone-dependent activation of E2C-TATA-luc reporter [1] | β-gal reporter gene activity (10×N1-TATA-β-gal) [3] | further results
E2C-scER/30-VP64: single-chain fusion of E2C, two ER LBDs joined by 30 amino acid linker, VP64 | efficiently activated |  | 
E2C-scER/18-VP64: single-chain fusion of E2C, two ER LBDs joined by 18 amino acid linker, VP64 | efficiently activated |  | 
4-hydroxytamoxifen [4-OHT] |  | efficiently activated | crossreactivity between 4-OHT and PR (hPR (aa645-914) LBD): no detectable crossreactivity; also recorded: no detectable crossreaction; luciferase expression (10×B3-TATA-luc) [2]: did not affect
E2C-ER (from UniProt P19785 281-599) |  |  | luciferase expression from the E2C-TATA-luc reporter (single E2C site) in HeLa cells, stimulation by 4-OHT (ER-VP64 (mouse)): 3 to 5 fold
CC#C[C@]1(O)CC[C@H]2[C@@H]3CCC4=CC(=O)CCC4=C3[C@@H](c3ccc(N(C)C)cc3)C[C@@]21C [RU486, 11β-(4-dimethylaminophenyl)-17β-hydroxy-17α-propinyl-4,9-e stradiene-3-one] |  | no effect | 
B1 | inactive |  | 
